The text below walks through data of patent US20040176468A1 (Wyeth, priority 1999, published 2004).

The experiment has as its target NE uptake (Rattus norvegicus, UniProt Q63380). Put plainly: Neurotransmitter uptake inhibition: NE uptake, crude synaptosomal preparation. As to conditions: rat cortex crude synaptosomal preparation; for IC50: 0.1 μM 3H-NE, 37° C. for 6 minutes. The experiment is classed as biochemical. The method, then:
Male Sprague-Dawley rats (180-260 g, Charles River) were used in all neurochemical assays. Rats were housed in temperature-controlled quarters on a 12 hr light/12 hr dark cycle with free access to food and water.
Neurotransmitter Uptake Inhibition
Uptake experiments were performed using a crude synaptosomal preparation made from the brain tissue of adult male Sprague-Dawley rats. The cortex of 1 rat for NE and 5-HT uptake was removed on ice and homogenized in 20 volumes of 0.32 M sucrose/g tissue weight using a Potter-Elvehjem teflon homogenizer (3 strokes at 840 rpm). The homogenate was then centrifuged for 12 minutes at 1,000×g at 0-4° C. The resulting supernatant was decanted into a chilled glass beaker and kept on ice until assayed. Protein concentration was determined by the method of Lowry et al. (1).
For these experiments, all compounds were run in duplicate in concentrations of 0.003-30.0 μM. Each tube received buffer (790 μl in drug tubes, 800 μl in control tubes), 10 μl of drug or standard. (0.1 μM DMI for NE uptake and 3.0 μM zimelidine HCl for 5-HT uptake), 100 μl isotope (0.1 μM ^3H—NE and 0.05 μM ^14C-5-HT), and 100 μl tissue. Tubes were incubated at 37° C. for 6 minutes. Incubation was terminated by the addition of 2.5 ml buffer followed by vacuum filtration using a Brandel filtration manifold with Whatman GF/B glass fiber filters and a second wash with 2.5 ml buffer. Filters were added to 10 ml Hydrofluor, shaken for 15 minutes and counted in a Packard 460CD scintillation counter equipped with dual-label dpm data reduction. Results were expressed as pmol uptake/mg protein/min.

Structures can show the parent of a compound that is named as a salt.

NE uptake, sequence (Q63380 1-617): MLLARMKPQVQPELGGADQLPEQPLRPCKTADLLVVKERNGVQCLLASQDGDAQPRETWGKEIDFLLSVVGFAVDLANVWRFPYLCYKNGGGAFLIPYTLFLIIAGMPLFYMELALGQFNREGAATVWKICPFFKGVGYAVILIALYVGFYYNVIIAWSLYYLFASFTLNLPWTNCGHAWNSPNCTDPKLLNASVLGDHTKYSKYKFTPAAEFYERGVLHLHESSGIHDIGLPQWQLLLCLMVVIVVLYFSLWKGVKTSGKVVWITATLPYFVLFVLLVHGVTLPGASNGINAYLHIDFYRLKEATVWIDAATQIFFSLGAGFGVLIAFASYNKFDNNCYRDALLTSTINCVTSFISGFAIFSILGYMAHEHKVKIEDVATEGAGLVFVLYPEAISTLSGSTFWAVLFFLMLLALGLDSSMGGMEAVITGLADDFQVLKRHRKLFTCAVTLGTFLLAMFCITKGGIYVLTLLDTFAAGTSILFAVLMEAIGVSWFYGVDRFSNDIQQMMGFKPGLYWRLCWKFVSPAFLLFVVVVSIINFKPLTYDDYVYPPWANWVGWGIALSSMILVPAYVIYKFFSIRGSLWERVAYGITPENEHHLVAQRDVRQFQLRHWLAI

One may read the IC50 as the concentration that gives 50% inhibition. A lower IC50 goes with greater potency in that assay. Compound `CN(C)C[C@@H](c1ccc(O)cc1)C1(O)CCCCC1` [(−)O-Desmethyl venlafaxine, R(−)-4-[2-(Dimethylamino)-1-(1-hydroxycyclohexyl)ethyl]phenol fumarate hydrate salt] had an IC50 of 270 nM. For `CN(C)C[C@H](c1ccc(O)cc1)C1(O)CCCCC1` [(+)O-Desmethyl venlafaxine, S (+)-4-[2-(Dimethylamino)-1-(1-hydroxycyclohexyl)ethyl]phenol fumarate hydrate salt], the IC50 stood at 720 nM. As usually defined, the inhibition is the share of the control response that was lost under treatment. Low values mean a response near the control, high ones a response far below the control. For `CN(C)CC(c1ccc(O)cc1)C1(O)CCCCC1` (racemic) [O-Desmethyl venlafaxine, 4-[1-(2-dimethylamino)-2-(1-hydroxycyclohexyl)-ethyl]-phenol], testing at 0.3 µM (at 0.3 μM) gave an inhibition of 75%.
